Marks after values point to notes of the source that are not given here.
Assays:
B. cenocepacia K56-2 [1] = type: cell-based, Burkholderia cenocepacia; details: B. cenocepacia K56-2; CAMHB, 18 h, 37 °C
B. lata BCC6 = type: cell-based, Burkholderia lata; details: B. lata BCC6
B. contaminans MF16 = type: cell-based, Burkholderia contaminans; details: B. contaminans MF16
[2] = system: B. contaminans FFH-2050MA; type: cell-based, Burkholderia contaminans; details: B. contaminans FFH-2050MA
B. dolosa CEP021 = type: cell-based, Burkholderia dolosa; details: B. dolosa CEP021
B. multivorans ATCC17616 = type: cell-based, Burkholderia multivorans; details: B. multivorans ATCC17616
B. cenocepacia 140485 = type: cell-based, Burkholderia cenocepacia; details: B. cenocepacia 140485
B. ubonensis LMG 20358 = type: cell-based, Burkholderia ubonensis; details: B. ubonensis LMG 20358
B. contaminans FFH-4004 = type: cell-based, Burkholderia contaminans; details: B. contaminans FFH-4004
[3] = system: B. mallei China 5 (NBL 4); type: cell-based, Burkholderia mallei
[4] = system: B. mallei Ivan (NCTC 10230); type: cell-based, Burkholderia mallei
[5] = system: B. mallei China 7 (NBL 7); type: cell-based, Burkholderia mallei
B. pseudomallei 1710b = type: cell-based, Burkholderia pseudomallei
B. pseudomallei MSHR465a = type: cell-based, Burkholderia pseudomallei
[6] = system: B. pseudomallei HBPUB10134a; type: cell-based, Burkholderia pseudomallei
B. pseudomallei MSHR305 = type: cell-based, Burkholderia pseudomallei
[7] = system: Stenotrophomonas maltophilia DH57; type: cell-based
[8] = system: Stenotrophomonas maltophilia K279a; type: cell-based
Escherichia coli 120955 [9] = type: cell-based
[10] = system: Escherichia vulneris CEP511; type: cell-based
[11] = system: Klebsiella pneumoniae 120310; type: cell-based
[12] = system: Acinetobacter baumannii ATCC 17978; type: cell-based
[13] = system: Staphylococcus aureus ATCC 27700; type: cell-based
[14] = system: Staphylococcus aureus 107094; type: cell-based
[15] = system: Achromobacter xylosoxidans ACH03; type: cell-based
[16] = system: Burkholderia cenocepacia K56-2; experiment: MBC (minimum bactericidal concentration); type: cell-based; details: MBC determined from exponential time kill curve
[17] = system: Stenotrophomonas maltophilia K279a; experiment: MBC (minimum bactericidal concentration); type: cell-based
[18] = system: B. cenocepacia K56-2 persister cells; experiment: Time kill of persister cells generated with ciprofloxacin; type: cell-based, Burkholderia cenocepacia
B. cenocepacia K56-2 [19] = experiment: In vivo antibiotic activity in infected C. elegans; details: C. elegans infected with B. cenocepacia K56-2, data not shown
B. cenocepacia K56-2 [20] = experiment: In vivo antibiotic activity in infected G. mellonella; details: G. mellonella infected with B. cenocepacia K56-2, data not shown
B. cenocepacia K56-2 [21] = experiment: MIC in 50% human serum; type: cell-based, Burkholderia cenocepacia
human A549 cells = details: cited from earlier work
[22] = system: Galleria mellonella larvae; experiment: Galleria toxicity
B. cenocepacia K56-2 [23] = experiment: Persister frequency assay; details: 24 h
[24] = system: Stenotrophomonas maltophilia DH57; experiment: MBC (minimum bactericidal concentration)
Escherichia coli 120955 [25] = experiment: MBC (minimum bactericidal concentration)
[26] = system: Escherichia vulneris CEP511; experiment: MBC (minimum bactericidal concentration)
[27] = system: Klebsiella pneumoniae 120310; experiment: MBC (minimum bactericidal concentration)
[28] = system: Acinetobacter baumannii ATCC 17978; experiment: MBC (minimum bactericidal concentration)
[29] = system: Staphylococcus aureus ATCC 27700; experiment: MBC (minimum bactericidal concentration)
[30] = system: Staphylococcus aureus 107094; experiment: MBC (minimum bactericidal concentration)
[31] = system: Achromobacter xylosoxidans ACH03; experiment: MBC (minimum bactericidal concentration)
[32] = system: Burkholderia cenocepacia K56-2; experiment: Time kill assays (exponential and stationary phase); details: time kill, 1×, 2×, 6 h
B. mallei = type: cell-based, Burkholderia mallei; details: range over B. mallei strains
B. pseudomallei = type: cell-based, Burkholderia pseudomallei
members of the Bcc = experiment: MIC, summary over Bcc panel; type: cell-based, Burkholderia cepacia complex; details: text summary over Bcc panel (most of the MICs)
Gram-negative bacteria = system: Gram-negative bacteria; design: method as in PMID 25831516; details: cited from earlier work

SMILES: C[PH](C)(C)[Au][S]CCO [MS-40, 2-mercaptoethanolatotrimethylphosphine gold(I)]
- MIC (B. cenocepacia K56-2 [1]): 4 µg/mL
- MIC (B. lata BCC6): 8 µg/mL
- MIC (B. contaminans MF16): 8 µg/mL
- MIC [2]: 4 µg/mL
- MIC (B. dolosa CEP021): 16 µg/mL
- MIC (B. multivorans ATCC17616): 8 µg/mL
- MIC (B. cenocepacia 140485): 8 µg/mL
- MIC (B. ubonensis LMG 20358): 16 µg/mL
- MIC (B. contaminans FFH-4004): 8 µg/mL
- MIC [3]: 0.12 µg/mL
- MIC [4]: 0.12 µg/mL
- MIC [5]: 0.25 µg/mL
- MIC (B. pseudomallei 1710b): 4 µg/mL
- MIC (B. pseudomallei MSHR465a): 4 µg/mL
- MIC [6]: 4 µg/mL
- MIC (B. pseudomallei MSHR305): 2 µg/mL
- MIC [7]: 1 µg/mL
- MIC [8]: 2 µg/mL
- MIC (Escherichia coli 120955 [9]): 4 µg/mL
- MIC [10]: 2 µg/mL
- MIC [11]: 2 µg/mL
- MIC [12]: 2 µg/mL
- MIC [13]: 0.25 µg/mL
- MIC [14]: 0.25 µg/mL
- MIC [15]: 8 µg/mL
- MBC [16]: 8 * μg/mL
- MBC [17]: 2 µg/mL
- further reduction of ciprofloxacin-generated persister population ([18]; enriched persister population): 1–2 log10 CFU/mL
- killing of ciprofloxacin-generated persister cells ([18]; in PBS, 3 h, MS-40S/MS-40 2× and 4× MIC, ciprofloxacin 5× MIC): killed to a concentration below/close to the limit of detection
- in vivo antibiotic activity (B. cenocepacia K56-2 [19]): did not observe in vivo antibiotic activity
- in vivo antibiotic activity (B. cenocepacia K56-2 [20]): did not observe in vivo antibiotic activity
- MIC in the presence of 50% human serum (B. cenocepacia K56-2 [21]): 128 µg/mL
- toxicity in human A549 cells compared with auranofin (human A549 cells): lower toxicity
- Galleria Survival ([22]; 1.0 mg/kg, 24 h): 100%
- Galleria Survival ([22]; 1.0 mg/kg, 48 h): 96.7%
- Galleria Survival ([22]; 1.0 mg/kg, 72 h): 96.7%
- Galleria Survival ([22]; 2.0 mg/kg, 24 h): 90.0%
- Galleria Survival ([22]; 2.0 mg/kg, 48 h): 80.0%
- Galleria Survival ([22]; 2.0 mg/kg, 72 h): 80.0%
- Galleria Survival ([22]; 5.0 mg/kg, 24 h): 96.7%
- Galleria Survival ([22]; 5.0 mg/kg, 48 h): 93.3%
- Galleria Survival ([22]; 5.0 mg/kg, 72 h): 90.0%
- percent survival of Galleria larvae ([22]; 10 mg/kg): ≥ 80%
- Galleria Survival ([22]; 10.0 mg/kg, 24 h): 90.0%
- Galleria Survival ([22]; 10.0 mg/kg, 48 h): 83.3%
- Galleria Survival ([22]; 10.0 mg/kg, 72 h): 80.0%
- persister frequency (percent survival) (B. cenocepacia K56-2 [23]; 5× MIC): No persisters
- persister frequency (percent survival) (B. cenocepacia K56-2 [23]; 10× MIC): No persisters
- MBC [24]: 4 µg/mL
- MBC (Escherichia coli 120955 [25]): 32 µg/mL
- MBC [26]: 2 µg/mL
- MBC [27]: 4 µg/mL
- MBC [28]: 4 µg/mL
- MBC [29]: 2 µg/mL
- MBC [30]: 1 µg/mL
- MBC [31]: 8 µg/mL
- killing of stationary (non-replicating) phase cells ([32]; 4× MIC (DOX 4× MIC)): bactericidal
- killing of exponential (replicating) phase cells ([32]; 4× MIC): bactericidal

SMILES: CC(=O)OC[C@H]1O[C@@H]([S-])[C@H](OC(C)=O)[C@@H](OC(C)=O)[C@@H]1OC(C)=O.CCP(CC)CC.[Au+] [Auranofin]
- MIC (B. cenocepacia K56-2 [1]): >128 µg/mL
- MIC (B. lata BCC6): 128 µg/mL
- MIC (B. contaminans MF16): 128 µg/mL
- MIC [2]: 128 µg/mL
- MIC (B. dolosa CEP021): >128 µg/mL
- MIC (B. multivorans ATCC17616): 128 µg/mL
- MIC (B. cenocepacia 140485): 128 µg/mL
- MIC (B. ubonensis LMG 20358): >128 µg/mL
- MIC (B. contaminans FFH-4004): >128 µg/mL
- MIC [3]: 0.25 µg/mL
- MIC [4]: 0.5 µg/mL
- MIC [5]: 1 µg/mL
- MIC (B. pseudomallei 1710b): 64 µg/mL
- MIC (B. pseudomallei MSHR465a): 64 µg/mL
- MIC [6]: 64 µg/mL
- MICs against B. mallei (B. mallei): 0.25 to 1 µg/mL
- MIC in B. pseudomallei (B. pseudomallei): 64 µg/mL
- MICs against members of the Bcc (members of the Bcc): ≥ 128 µg/mL
- MICs against Gram-negative bacteria (Gram-negative bacteria): > 16 mg/L
